# In patent publication US20250368595A1, “NOVEL MOLECULES” (XENIOPRO GmbH, priority 2018, published 2025):
# What was measured:
# BHY cells = assay: alamarBlue proliferation assay with BHY cells; assay type: cell-based, human; settings: relative to DMSO basis level 1.0
# Text: (§1) The antiproliferative activities of compounds falling under formula (Ia), (Ib) and (Ic), respectively, were investigated on cells or cell lines originating from a disorder of the haematopoietic system, including the myeloid cell compartment and the lymphoid cell compartment (T-cells and B-cells), the neuroendocrine system, the cervix, the breast, the ovaries, the lung, the gastrointestinal tract, and the mucosal epithelium, as well as from the skin epithelium and from the muscle. To this end, HL-60 cells, NB-4 cells, HH cells, RPMI-8402 cells, TANQUE cells, TT cells, HeLa cells, MDA-MB-231 cells, FU-OV-1 cells, LOU-NH91 cells, 23132/87 cells, CAL-27 cells, BHY cells, SCC-25 cells, A-431 cells, human primary epidermal keratinocytes (HPEK), and C2C12 cells were seeded into 96-well plates suitable for fluorescence assays (CORNING #3598) at following initial cell numbers: 1000 cells per well for HL-60; 1000 cells per well for NB-4; 5000 cells per well for HH; 5000 cells per well for RPMI-8402; 1500 cells per well for TANOUE; 9000 cells per well for TT; 2000 cells per well for HeLa; 3000 cells per well for MDA-MB-231; 3000 cells per well for FU-OV-1; 4000 cells per well for LOU-NH91; 2000 cells per well for 23132/87; 2000 cells per well for CAL-27; 1500 cells per well for BHY; 1500 cells per well for SCC-25; 700 cells per well for A-431; 1000 cells per well for HPEK; 500 cells per well for C2C12. […] The readout was taken with a multi-well plate-reader in the fluorescence mode with applying a filter for excitation at 560 nm (band width 10 nm) and for emission at 590 nm (band width 10 nm). […]
# (§2) The assays were performed in duplicate or more replicates of independent single experiments each containing a six-fold replicate for every condition. For every individual plate, the measured fluorescence intensity values of the conditions with compound treatment were normalized • against the corresponding equally weighted arithmetic mean of the fluorescence intensity values of the six DMSO treated control wells in order to obtain the relative values to a baseline level of 1.0. […]
# LOU-NH91 cells = assay: alamarBlue proliferation assay with LOU-NH91 cells; assay type: cell-based, human; settings: relative to DMSO basis level 1.0
# Text: as §1, §2
# MDA-MB-231 cells = assay: alamarBlue proliferation assay with MDA-MB-231 cells; assay type: cell-based, human; settings: 20 μM, relative to DMSO basis level 1.0
# Text: The antiproliferative activities of compounds falling under formula (Ia), (Ib) and (Ic), respectively, were investigated on cells or cell lines originating from a disorder of the haematopoietic system, including the myeloid cell compartment and the lymphoid cell compartment (T-cells and B-cells), the neuroendocrine system, the cervix, the breast, the ovaries, the lung, the gastrointestinal tract, and the mucosal epithelium, as well as from the skin epithelium and from the muscle. […] The readout was taken with a multi-well plate-reader in the fluorescence mode with applying a filter for excitation at 560 nm (band width 10 nm) and for emission at 590 nm (band width 10 nm). […]
# as §2
# TT cells = assay: alamarBlue proliferation assay with TT cells; assay type: cell-based, human; settings: relative to DMSO basis level 1.0
# Text: as §1, §2
# TANOUE cells = assay: alamarBlue proliferation assay with TANOUE cells; assay type: cell-based, human; settings: relative to DMSO basis level 1.0
# Text: as §1, §2
# HL-60 cells = assay: alamarBlue proliferation assay with HL-60 cells; assay type: cell-based, human; settings: relative to DMSO basis level 1.0
# Text: as §1, §2
# SCC-25 cells = assay: alamarBlue proliferation assay with SCC-25 cells; assay type: cell-based, human
# Text: as §1, §2
# NB-4 cells = assay: alamarBlue proliferation assay with NB-4 cells; assay type: cell-based, human; settings: relative to DMSO basis level 1.0
# Text: as §1, §2
# 23132/87 cells = assay: alamarBlue proliferation assay with 23132/87 cells; assay type: cell-based, human; settings: relative to DMSO basis level 1.0
# Text: as §1, §2
# HH cells = assay: alamarBlue proliferation assay with HH cells; assay type: cell-based, human; settings: relative to DMSO basis level 1.0
# Text: as §1, §2
# HPEKp cells = assay: alamarBlue proliferation assay with HPEKp cells; assay type: cell-based, human
# Text: as §1, §2
# CAL-27 cells = assay: alamarBlue proliferation assay with CAL-27 cells; assay type: cell-based, human; settings: relative to DMSO basis level 1.0
# Text: as §1, §2
# FU-OV-1 cells = assay: alamarBlue proliferation assay with FU-OV-1 cells; assay type: cell-based, human; settings: relative to DMSO basis level 1.0
# Text: as §1, §2
# HeLa cells = assay: alamarBlue proliferation assay with HeLa cells; assay type: cell-based, human; settings: relative to DMSO basis level 1.0
# Text: as §1, §2
# C2C12 cells = assay: alamarBlue proliferation assay with C2C12 cells; assay type: cell-based, murine
# Text: as §1, §2
# A-431 cells = assay: alamarBlue proliferation assay with A-431 cells; assay type: cell-based, human
# Text: as §1, §2
# RPMI-8402 cells = assay: alamarBlue proliferation assay with RPMI-8402 cells; assay type: cell-based, human; settings: relative to DMSO basis level 1.0
# Text: as §1, §2
Structure (SMILES),Activity Range: weighted arithmetic mean (AVEw) of normalized fluorescence intensity (BHY cells; 20 μM),Activity Range: weighted arithmetic mean (AVEw) of normalized fluorescence intensity (LOU-NH91 cells; 20 μM),Activity Range: weighted arithmetic mean (AVEw) of normalized fluorescence intensity (MDA-MB-231 cells),Activity Range: weighted arithmetic mean (AVEw) of normalized fluorescence intensity (TT cells; 20 μM),Activity Range: weighted arithmetic mean (AVEw) of normalized fluorescence intensity (TANOUE cells; 20 μM),Activity Range: weighted arithmetic mean (AVEw) of normalized fluorescence intensity (HL-60 cells; 20 μM),"Activity Range: weighted arithmetic mean (AVEw) of normalized fluorescence intensity, relative to DMSO basis level of 1.0 (SCC-25 cells; 20 μM)",Activity Range: weighted arithmetic mean (AVEw) of normalized fluorescence intensity (NB-4 cells; 20 μM),Activity Range: weighted arithmetic mean (AVEw) of normalized fluorescence intensity (23132/87 cells; 20 μM),Activity Range: weighted arithmetic mean (AVEw) of normalized fluorescence intensity (HH cells; 20 μM),"Activity Range: weighted arithmetic mean (AVEw) of normalized fluorescence intensity, relative to DMSO basis level of 1.0 (HPEKp cells; control at 20 μM)",Activity Range: weighted arithmetic mean (AVEw) of normalized fluorescence intensity (CAL-27 cells; 20 μM),Activity Range: weighted arithmetic mean (AVEw) of normalized fluorescence intensity (FU-OV-1 cells; 20 μM),Activity Range: weighted arithmetic mean (AVEw) of normalized fluorescence intensity (HeLa cells; 20 μM),"Activity Range: weighted arithmetic mean (AVEw) of normalized fluorescence intensity, relative to DMSO basis level of 1.0 (C2C12 cells; 20 μM)","Activity Range: weighted arithmetic mean (AVEw) of normalized fluorescence intensity, relative to DMSO basis level of 1.0 (A-431 cells; 20 μM)",Activity Range: weighted arithmetic mean (AVEw) of normalized fluorescence intensity (RPMI-8402 cells; 20 μM),also measured
"CN(Cc1cnc2nc(N)nc(N)c2n1)c1ccc(C(=O)N[C@@H](CCC(=O)O)C(=O)O)cc1 [MTREX, Methotrexate]",0.3 ± 0.0,0.5 ± 0.1,0.6 ± 0.0,1.0 ± 0.0,0.1 ± 0.0,0.1 ± 0.1,0.5 ± 0.1,0.1 ± 0.0,0.3 ± 0.0,0.4 ± 0.1,0.9 ± 0.0,0.1 ± 0.0,1.0 ± 0.0,0.4 ± 0.0,0.1 ± 0.0,0.2 ± 0.1,0.1 ± 0.0,
"Oc1ccc(C=Cc2cc(O)cc(O)c2)cc1 [RES, Resveratrol]",0.5 ± 0.1,0.9 ± 0.1,0.6 ± 0.0,0.9 ± 0.0,0.1 ± 0.0,0.4 ± 0.1,0.4 ± 0.1,0.1 ± 0.0,0.5 ± 0.1,0.6 ± 0.1,0.2 ± 0.0,0.8 ± 0.1,0.7 ± 0.0,0.9 ± 0.0,0.8 ± 0.0,0.6 ± 0.1,0.6 ± 0.0,"Activity Range: weighted arithmetic mean (AVEw) of normalized fluorescence intensity (BHY cells; control at 40 μM): 0.3 ± 0.0; Activity Range: weighted arithmetic mean (AVEw) of normalized fluorescence intensity (LOU-NH91 cells; control at 40 μM): 0.7 ± 0.0; Activity Range: weighted arithmetic mean (AVEw) of normalized fluorescence intensity (TT cells; control at 40 μM): 0.7 ± 0.0; Activity Range: weighted arithmetic mean (AVEw) of normalized fluorescence intensity (TANOUE cells; control at 40 μM): 0.0 ± 0.0; Activity Range: weighted arithmetic mean (AVEw) of normalized fluorescence intensity (HL-60 cells; control at 40 μM): 0.2 ± 0.1; Activity Range: weighted arithmetic mean (AVEw) of normalized fluorescence intensity, relative to DMSO basis level of 1.0 (SCC-25 cells; control at 40 μM): 0.1 ± 0.0; Activity Range: weighted arithmetic mean (AVEw) of normalized fluorescence intensity (NB-4 cells; control at 40 μM): 0.0 ± 0.0; Activity Range: weighted arithmetic mean (AVEw) of normalized fluorescence intensity (23132/87 cells; control at 40 μM): 0.2 ± 0.0; Activity Range: weighted arithmetic mean (AVEw) of normalized fluorescence intensity (HH cells; control at 40 μM): 0.4 ± 0.1; Activity Range: weighted arithmetic mean (AVEw) of normalized fluorescence intensity, relative to DMSO basis level of 1.0 (HPEKp cells; control at 40 μM): 0.2 ± 0.0; Activity Range: weighted arithmetic mean (AVEw) of normalized fluorescence intensity (CAL-27 cells; control at 40 μM): 0.4 ± 0.3; Activity Range: weighted arithmetic mean (AVEw) of normalized fluorescence intensity (FU-OV-1 cells; control at 40 μM): 0.4 ± 0.0; Activity Range: weighted arithmetic mean (AVEw) of normalized fluorescence intensity (HeLa cells; control at 40 μM): 0.4 ± 0.1; Activity Range: weighted arithmetic mean (AVEw) of normalized fluorescence intensity, relative to DMSO basis level of 1.0 (C2C12 cells; control at 40 μM): 0.2 ± 0.1; Activity Range: weighted arithmetic mean (AVEw) of normalized fluorescence intensity, relative to DMSO basis level of 1.0 (A-431 cells; control at 40 μM): 0.2 ± 0.0; Activity Range: weighted arithmetic mean (AVEw) of normalized fluorescence intensity (RPMI-8402 cells; control at 40 μM): 0.1 ± 0.0"
